The text below walks through data of US8227448B2, “Nutritional composition with health promoting action containing oligosaccharides” (priority 2000, dated 2012).

In the assay the test system is EHEC binding to Caco2 cells. The experiment in a line: inhibition of pathogen (EHEC) binding to human colon cancer cells. Type of assay: cell-based. To be noted: EHEC (2×10^8 cfu/ml) on Caco2 cells; test solution 5-10 mg/ml hydrolysed fibre; 1 h at 37° C.; cfu versus blank. As to the method: Different oligosaccharides obtained by hydrolysis of fibres were used to measure inhibition of pathogen binding to human colon cancer cells. Cells for the binding experiment are grown under standard conditions. The growth medium is removed from the cells and 0.2 ml of minimal essential medium, 0.4 ml EHEC solution (2×10^8 cfu/ml) and 0.4 ml of test solution (5-10 mg/ml hydrolysed fibre) is added. Appropriate blanks are used as controls. Cells are incubated for an hour at 37° C., after which the medium is removed. The cells are washed five times with PBS buffer, lysed, homogenised, diluted and plated to count colony-forming units, following standard procedures. Comparison of the amount of cfu's found with the blank and with one of the fractions, the inhibiting power of the fraction can be calculated as percentage reduction in binding. The table below summarises results of binding reduction. […] All other oligosaccharides (non arabinose-containing) have lower than 60% binding reduction activity.

For the molecule `OC[C@H]1O[C@@H](O[C@H]2[C@H](O)[C@@H](O)C(O)O[C@@H]2CO)[C@H](O)[C@@H](O)[C@H]1O` (stereo partly shown) [lactose], the “% binding reduction” value was 28%.
